In brackets after ≈: the same amount, converted by molar mass. Read-outs that look alike come from different tables or passages of the source. Each block holds one molecule with its values, some of them ahead of it.
Tests used:
[1] = test system: PupVSMC rat neonatal aortic smooth muscle cells; experiment: Cell proliferation assay, PupVSMC; assay type: cell-based
Description: (§1) Early passage rat aortic smooth muscle cells (CV Therapeutics Cell repository) were seeded in 48 well dishes (Falcon, […]) at a density of 20,000 cells/ml of DME containing 5% heat inactivated bovine serum. The cells were incubated in a standard tissue culture incubator for 48 hr. The medium was aspirated and the wells were replenished with 0.2 ml of fresh medium. Compounds of this invention were added at concentrations ranging from 100 to 0.37 µg/ml. After 48 hr incubation, the medium was aspirated and the cultures were treated with 0.2 ml of saline and 0.25 µl of phenazine methosulfate solution containing MTS (Cell Titer 96® Aqueous Non-radioactive cell proliferation assay kit, Catalog # G 5430, Promega, 2800 Woods Hollow Road, Madison, WI 53711-5399). […]
(§2) Similar assays were performed using the following cell lines: P388 - mouse lymphoid neoplasm; L1210 - mouse lymphocytic leukemia; Caco2 human colon adenocarcinoma; MCF7 human breast adenocarcinoma; PupVSMC rat neonatal aortic smooth muscle cells; Ovcar human ovarian Carcinoma; Pancl human pancreatic adenocarcinoma; and HUVEC human umbilical cord endothelial cells.

IκB-α kinase = IκB-α kinase assay (filter assay of affinity enriched IκB-α kinase from LPS-activated HUVEC lysate); assay type: biochemical, human; details: Table 11, Enzyme Activity of Selected Compounds
CDK2 = CDK2 (Homo sapiens, UniProt P24941); experiment: biochemical; details: concentration required to inhibit CDK2 activity by 50%; 30 µM ATP, histone H1, 30°C for 30 min; read-out: IC50 (µg/mL) enzyme (converted)
Description: Compounds of this invention were assayed to determine their CDK2 inhibitory activity. The assay system (total volume of 50 µl) contained 50 mM Tris-HCl, pH 7.4, 10 mM MgCl2, 5 mM DTT, 1 µg of histone H1, 30 µM ATP (1 µCi of gamma^32P labeled ATP), 10 µg of BSA and 1 ng of purified CDK2. After incubation at 30°C for 30 min, the reaction was terminated by the addition of 10 µl of 10% TCA and the samples were blotted onto nitrocellulose filters. These filters were washed extensively in 10% TCA and assayed for radioactivity. Blanks contained no enzyme. […] After incubation at 30 min., the assay tubes were processed as above.

[2] = test system: rat aortic smooth muscle cells; experiment: tissue or blood; assay type: cell-based; details: read-out: IC50 (µg/mL) cells
Description: (§3) Early passage rat aortic smooth muscle cells (CV Therapeutics Cell repository) were seeded in 48 well dishes (Falcon, […]) at a density of 20,000 cells/ml of DME containing 5% heat inactivated bovine serum. The cells were incubated in a standard tissue culture incubator for 48 hr. The medium was aspirated and the wells were replenished with 0.2 ml of fresh medium. […]

[3] = test system: neointima formation following balloon angioplasty in the rat carotid artery; experiment: Neointima formation following balloon angioplasty, rat carotid artery model; assay type: in vivo; details: 14 days recovery
From the text: In this example, the left common carotid arteries of adult male rats (n=10 per experimental group) were surgically injured using a Fogarty arterial embolectomy catheter. Immediately after injury, the common carotid artery was bisected with a vascular clamp, thereby establishing an untreated and treated segment. A drug delivery catheter was then inserted into the distal half of the common carotid. After drug delivery, the catheter was removed and excess drug was washed out by removing the vascular clamp and re-establishing blood flow before closing the artery. […] The harvested tissue was sectioned and the neointimal area was digitized and measured with a computer planimetry system.

[4] = test system: mammalian cells in culture; details: literature; cited from earlier work
[5] = test system: P388 - mouse lymphoid neoplasm; experiment: Cell proliferation assay, P388; assay type: cell-based; details: P388 cells, read-out: IC50 (µg/ml) for Inhibition of Cell Proliferation P 388
[6] = test system: Caco2 human colon adenocarcinoma; experiment: cells; assay type: cell-based; details: Caco-2, read-out: IC50 (µg/ml) for Inhibition of Cell Proliferation Caco 2
Description: as §1, §2

[7] = test system: L1210 - mouse lymphocytic leukemia; experiment: cells; assay type: cell-based; details: read-out: IC50 (µg/ml) for Inhibition of Cell Proliferation L 120
Description: as §1, §2

[8] = test system: MCF7 human breast adenocarcinoma; experiment: Cell proliferation assay, MCF7; assay type: cell-based; details: MCF7 cells, read-out: IC50 (µg/ml) for Inhibition of Cell Proliferation MCF 7
Description: as §3, §2

[9] = test system: Pancl human pancreatic adenocarcinoma; experiment: Cell proliferation assay, Pancl; assay type: cell-based; details: Pancl cells, read-out: IC50 (µg/ml) for Inhibition of Cell Proliferation Panel
Description: as §3, §2

[10] = test system: Ovcar human ovarian Carcinoma; experiment: Cell proliferation assay, Ovcar; assay type: cell-based; details: Ovcar cells, read-out: IC50 (µg/ml) for Inhibition of Cell Proliferation OvC ar
Description: as §3, §2

[11] = inhibitory activity against the cell line, Table 9, unit inferred, read-out: PupVSMC

Compound: CC(C)n1cnc2c(NCc3ccc(Cl)cc3)nc(N(CCO)CCO)nc21 [2-[(2-hydroxyethyl)(6-{[(4-chlorophenyl)methyl]amino}-9-(methylethyl)purin-2-yl)amino]ethan-1-ol]
IC50 [1, 11]: 0.3 µg/mL (≈ 0.741 µM)

Compound: CSc1ccc(Nc2nc(N(CCO)CCO)nc3c2ncn3C(C)C)cc1 [Compound 6A, 2-diethanolamine-6-(4-methylmercapto) anilino-9-isopropylpurine]
IC50 (IκB-α kinase): 12.4 µM

IC50 (CDK2): 5 µM
Compound: CC(C)n1cnc2c(NCc3ccc(Cl)cc3)nc(NCCNCCO)nc21

Compound: COc1cccc(-c2ccc(CNc3nc(N(CCO)CCO)nc4c3ncn4C(C)C)cc2)c1
IC50 (IκB-α kinase): > 10 µM

IC50 (CDK2): 22.2 µM
Compound: CC(C)n1cnc2c(NCc3ccc(S(N)(=O)=O)cc3)nc(NCCN)nc21

Compound: CC(C)n1cnc2c(NCc3ccc(Cl)cc3)nc(N(CCN)CCO)nc21
IC50 ([2]; concentration required to inhibit cell proliferation by 50%, rat aortic smooth muscle cells, 48 hr incubation, MTS): 0.2 µg/mL (≈ 0.495 µM)

IC50 (CDK2): > 168 µM
Compound: COc1ccc(CNc2nc(Cl)nc3c2ncn3C(F)(F)F)cc1

IC50 (CDK2): 203 µM
Compound: Clc1ccc(COc2nc(Cl)nc3[nH]cnc23)cc1 [4-chlorobenzyloxy; H; C1]

Compound: COc1ccc(CNc2nc(N(CCO)CCO)nc3c2ncn3C(C)C)cc1 [Compound 3, 2-diethanolamino-6-(4-methoxybenzylamino)-9-isopropylarine]
IC50 [1, 11]: 0.4 µg/mL (≈ 0.999 µM) | reduced the neointimal area ([3]; Figure 1, acute local delivery, saline vehicle alone 6%): about 88%

Compound: CC(C)n1cnc2c(NCc3ccc(Cl)cc3)nc(NCCN)nc21 [{2-[(2-aminoethyl)amino]-9-(methylethyl)purin-6-yl}[(4-chlorophenyl)methyl]amine]
IC50 [1, 11]: 0.1 µg/mL (≈ 0.278 µM) | reducing the neointimal area ([3]; acute local delivery, dose of 5 mg/mL, saline alone 6%): about 90%

Compound: CC(C)n1cnc2c(NCc3ccc(Cl)cc3)nc(N(CCN)CCO)nc21 [2-[(2-aminoethyl)(6-{[(4-chlorophenyl)methyl]amino}-9-(methylethyl)purin-2-yl)amino]ethan-1-ol]
IC50 [1, 11]: 0.3 µg/mL (≈ 0.743 µM)

IC50 (CDK2): 207 µM
Compound: COc1ccc(CNc2nc(Cl)nc3[nH]cnc23)cc1 [4-methoxybenzylamino; H; C1]

Compound: CC(C)n1cnc2c(Nc3ccc(Br)cc3)nc(N(CCO)CCO)nc21
IC50 (IκB-α kinase): 14 µM

Compound: CC(C)n1cnc2c(NCc3ccc(-c4ccccc4)cc3)nc(NCCO)nc21
IC50 (IκB-α kinase): 2.5 µM

IC50 (CDK2): 173 µM
Compound: COc1ccc(CNc2nc(Cl)nc3c2ncn3CC(C)C)cc1 [4-methoxybenzylamino; 2-methylpropyl; C1]

IC50 (CDK2): 194 µM
Compound: Cn1cnc2c(OCc3ccc(Cl)cc3)nc(Cl)nc21 [4-chlorobenzyloxy; Me; C1]

IC50 (CDK2): 1.28 µM
Compound: CC(C)n1cnc2c(NCc3ccc(C(F)(F)F)cc3)nc(N(CCO)CCO)nc21

IC50 (CDK2): > 137 µM
Compound: COC(=O)c1ccc(Cn2cnc3c(NCc4ccc(OC)cc4)nc(Cl)nc32)cc1

IC50 (CDK2): 130 µM
Compound: CC(C)Cn1cnc2c(NCc3ccc(C(F)(F)F)cc3)nc(N(CCO)CCO)nc21

Compound: Cn1cnc2c(NCc3ccccc3)nc(NCCO)nc21 [olomoucine, 2-(hydroxyethylamino)-6-benzylamino-9-methylpurine]
inhibits cell proliferation at an approximate concentration [4]: ~50 µg/mL

Compound: CC(N)CNc1nc(NCc2ccc(Cl)cc2)c2ncn(C(C)C)c2n1 (centres unmarked) [{2-[(2-aminopropyl)amino]-9-(methylethyl)purin-6-yl}[(4-chlorophenyl)methyl]amine]
IC50 [1, 11]: 0.1 µg/mL (≈ 0.267 µM)

Compound: CC(C)n1cnc2c(Nc3ccc(-c4ccccc4)cc3)nc(N(CCO)CCO)nc21 [Compound 6, 2-diethanolamino-6-(4-phenylanilino)-9-isopropylpurine]
IC50 [5]: 1 µg/mL (≈ 2.31 µM) | IC50 [6]: 0.5 µg/mL (≈ 1.16 µM) | IC50 [7]: 4 µg/mL (≈ 9.25 µM) | IC50 [8]: 4 µg/mL (≈ 9.25 µM) | IC50 [9]: 4 µg/mL (≈ 9.25 µM) | IC50 [10]: 7 µg/mL (≈ 16.2 µM) | IC50 ([1]; VSMC, PupVSMC cells, Table 8, read-out: IC50 (µg/ml) for Inhibition of Cell Proliferation Pup VS MC): 1 µg/mL (≈ 2.31 µM)

Compound: COc1ccc(CNc2nc(N(CCO)CCO)nc3c2ncn3C(C)C)cc1
IC50 ([2]; Rattus norvegicus, 48 h): 2.1 µg/mL (≈ 5.24 µM)

Compound: CC(C)n1cnc2c(Nc3cccc(-c4ccc(C#N)cc4)c3)nc(N(CCO)CCO)nc21
IC50 (IκB-α kinase): 2.2 µM

Compound: CC(C)n1cnc2c(NCc3ccc(-c4ccccc4)cc3)nc(N(CCO)CCO)nc21 [2-diethanolamino-6-(4-phenylbenzylamino)-9-isopropyl purine]
IC50 [5]: < 1 µg/mL | IC50 [9]: 1.3 µg/mL (≈ 2.91 µM) | IC50 (IκB-α kinase): 1.1 µM

IC50 [5]: > 5 µg/mL | IC50 [9]: 5.5 µg/mL (≈ 14.4 µM) | IC50 [10]: 4 µg/mL (≈ 10.5 µM)
Compound: COc1ccc(CNc2nc(N3CCOCC3)nc3c2ncn3C(C)C)cc1

Compound: CCN(CC)c1nc(NCc2ccc(-c3ccccc3)cc2)c2ncn(C(C)C)c2n1
IC50 (IκB-α kinase): > 2.4 µM

Compound: COc1ccc(-c2ccc(CNc3nc(N(CCO)CCO)nc4c3ncn4C(C)C)cc2)cc1
IC50 (IκB-α kinase): 11 µM

Compound: CC(C)n1cnc2c(NCc3ccc(-c4ccccn4)cc3)nc(N(CCO)CCO)nc21
IC50 (IκB-α kinase): 4.5 µM
